The supplement of paper PMC10307832

What was measured:
Experiment in all cases: relative viability (nuclei count vs DMSO), 5 days (fraction); higher = more cells survive
[1] = compound: CC1=C(CC(=O)O)c2cc(F)ccc2/C1=C\c1ccc([S+](C)[O-])cc1 [Sulindac] + C[C@@H](Oc1cc(-c2cnn(C3CCNCC3)c2)cnc1N)c1c(Cl)ccc(F)c1Cl [Crizotinib] (partner 1 µM)
Outline: (§1)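 Dosing by pin tool came one day after lung cancer cell lines were seeded in 1536-well plates, using either one drug or a fixed anchor-drug dose plus five library-drug doses (not always all listed) in √10 steps. After 5 days, nuclei were counted on 4× images. Relative viability is treated-well nuclei count divided by vehicle-well nuclei count, and values are medians of duplicate plates.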

[2] = compound: CC1=C(CC(=O)O)c2cc(F)ccc2/C1=C\c1ccc([S+](C)[O-])cc1 [Sulindac] + NC(=O)Nc1cc(-c2cccc(F)c2)sc1C(=O)N[C@H]1CCCNC1 [AZD7762] (partner 0.2 µM)
Outline: as §1

[3] = compound: CN[C@@H]1C[C@H]2O[C@@](C)([C@@H]1OC)n1c3ccccc3c3c4c(c5c6ccccc6n2c5c31)C(=O)NC4 [Staurosporine] + CS(=O)(=O)CCNCc1ccc(-c2ccc3ncnc(Nc4ccc(OCc5cccc(F)c5)c(Cl)c4)c3c2)o1 [Lapatinib] (partner 2 µM)
Outline: as §1

[4] = compound: CC1=C(CC(=O)O)c2cc(F)ccc2/C1=C\c1ccc([S+](C)[O-])cc1 [Sulindac] + CCNC(=O)c1noc(-c2cc(C(C)C)c(O)cc2O)c1-c1ccc(CN2CCOCC2)cc1 [Luminespib] (partner 0.01 µM)
Outline: as §1

Cell Line | relative viability ([1]; first compound 0.08 µM) | relative viability ([1]; first compound 0.253 µM) | relative viability ([1]; first compound 2.53 µM) | relative viability ([1]; first compound 8 µM) | relative viability ([2]; first compound 0.08 µM) | relative viability ([2]; first compound 0.253 µM) | relative viability ([2]; first compound 2.53 µM) | relative viability ([2]; first compound 8 µM) | relative viability ([3]; first compound 0.005 µM) | relative viability ([3]; first compound 0.01581 µM) | relative viability ([3]; first compound 0.05 µM) | relative viability ([3]; first compound 0.1581 µM) | relative viability ([3]; first compound 0.5 µM) | relative viability ([4]; first compound 0.08 µM) | relative viability ([4]; first compound 0.253 µM) | relative viability ([4]; first compound 2.53 µM) | relative viability ([4]; first compound 8 µM) | relative viability ([1]; first compound 0.8 µM) | relative viability ([2]; first compound 0.8 µM) | relative viability ([4]; first compound 0.8 µM)
NCI-H1792 | 1 | 1 | 0.944 | 1.16 | 0.98 | 0.647 | 0.766 | 0.703 | 0.992 | 0.814 | 0.503 | 0.199 | 0.185 | 0.409 | 0.475 | 0.384 | 0.627 |  |  | 
NCI-H358 | 0.475 | 0.52 | 0.497 | 0.746 | 0.45 | 0.517 | 0.427 | 0.651 | 0.534 | 0.378 | 0.259 | 0.152 | 0.136 | 0.202 | 0.384 | 0.46 | 0.359 | 0.596 |  | 
NCI-H1755 | 1 | 0.886 | 0.981 | 0.935 | 0.424 | 0.429 | 0.456 | 0.498 | 0.556 | 0.33 | 0.207 | 0.142 | 0.142 | 0.546 | 0.829 | 0.536 | 0.486 | 0.743 | 0.628 | 0.399
EPLC-272H | 0.932 |  | 0.551 | 0.977 | 0.432 |  | 0.155 | 0.263 | 0.787 | 0.194 | 0.513 | 0.175 | 0.149 | 0.211 | 0.167 | 0.262 | 0.255 | 0.948 | 0.53 | 
